{"source": "patent US5846980A", "about": "“N-(benzhydryloxyalkyl)-4-(carboxy/carbamoyl methyl)-piperidine derivatives as antidepressants” (Cooperation Pharmaceutique Francaise, priority 1994, dated 1998)", "origin": "cited, not measured here", "key": {"[1]": {"test_system": "sleep induced by phenobarbital", "settings": "in vivo"}, "[2]": {"test_system": "motor activity of the animals", "settings": "in vivo"}, "stereotypic behaviors": {"test_system": "stereotypic behaviors", "settings": "in vivo"}, "[3]": {"test_system": "immobility time of the mouse"}, "[4]": {"test_system": "ptosis and hypothermia induced by reserpine", "settings": "in vivo"}}}
{"compound": "1-[2-(Diphenylmethoxy)ethyl]-4-(3-phenylpropenyl)piperazine", "values": [{"measurement": "sleep induced by phenobarbital", "setting": "[1]", "result": "decreases the sleep induced by phenobarbital"}, {"measurement": "motor activity of the animals", "setting": "[2]", "result": "increases the motor activity of the animals"}, {"measurement": "stereotypic behaviors", "setting": "stereotypic behaviors", "result": "induces stereotypic behaviors"}, {"measurement": "immobility time in the behavioral despair test", "setting": "[3]", "result": "decreases the immobility time of the mouse"}, {"measurement": "antagonism of the hypothermia induced by reserpine", "setting": "[4]", "result": "antagonizes neither the ptosis nor the hypothermia induced by reserpine"}, {"measurement": "antagonism of the ptosis induced by reserpine", "setting": "[4]", "result": "antagonizes neither the ptosis nor the hypothermia induced by reserpine"}]}
{"compound": "CN1Cc2c(N)cccc2C(c2ccccc2)C1", "note": "(stereo not drawn) [1,2,3,4-tetrahydro-2-methyl-4-phenyl-8-isoquinolinamine]", "values": [{"measurement": "antidepressant activity in human clinical studies", "setting": "antidepressant activity", "result": "this effect is demonstrated in human clinical studies"}]}
{"compound": "c1ccc2sc(C3(N4CCCCC4)CCCCC3)cc2c1", "note": "[1-[1-(2-Benzo[b]thiophenyl)cyclohexyl]piperidine]", "values": [{"measurement": "inhibition of dopamine re-uptake", "setting": "dopamine re-uptake", "result": "inhibit dopamine and noradrenaline re-uptake"}, {"measurement": "inhibition of noradrenaline re-uptake", "setting": "noradrenaline re-uptake", "result": "inhibit dopamine and noradrenaline re-uptake"}]}
